Where two headings read alike, the source gives them in different places. *1 amine or outer side, *2 acyl side, *3 side chain or, on linkers, in order; H or OH if unused. Where a SMILES comes first, the peptide text is derived from it. [ ]: non-standard residue; d: D form. The star is where a group is joined. ξ: configuration not given here. Decanoyl(3ξ-OH) = CCCCCCCC(O)CC(=O)*; X1 = CC=C(N[*:1])C(=O)[*:2]
Columns and labels:
Type in all cases: cell-based
Cytotoxic activity assay = details: human, normal cell line 293T
HepG-2 = assay: Cytotoxic activity assay; details: HepG2; human hepatoma cell HepG-2
[1] = system: Bacillus subtilis ATCC 6633; assay: Antibacterial activity assay; details: ATCC6633; Gram-positive bacterium Bacillus subtilis ATCC 6633
[2] = system: Escherichia coli ATCC 35218; assay: Antibacterial activity assay; details: ATCC35218
A549 = assay: Cytotoxic activity assay; details: human lung adenocarcinoma cell A549
HCT116 = assay: Cytotoxic activity assay; details: Homo sapiens, HCT-116, read-out: cytotoxic activity IC50, HCT116
[3] = system: Staphylococcus aureus ATCC 29213; assay: Antibacterial activity assay; details: ATCC29213; Gram-positive bacterium Staphylococcus aureus ATCC 29213
Hela = assay: Cytotoxic activity assay; details: human cervix epithelioid carcinoma Hela
K562 = assay: Cytotoxic activity assay; details: human hematological disease cells K562
[4] = system: Pseudomonas aeruginosa ATCC 27853; assay: Antibacterial activity assay; details: ATCC27853; Gram-negative bacterium Pseudomonas aeruginosa ATCC 27853
MCF-7 = assay: Cytotoxic activity assay; details: human breast adenocarcinoma cells MCF7
[5] = Gram-negative bacterium Escherichia coli ATCC 35218, read-out: MIC

Row | Compound | IC50 (Cytotoxic activity assay) | IC50 (HepG-2) | MIC [1] | MIC ([2]; Escherichia coli) | IC50 (A549) | IC50 (HCT116) | MIC [3] | IC50 (Hela) | IC50 (K562) | MIC [4] | IC50 (MCF-7) | MIC [2, 5] | IC50 (Cytotoxic activity assay; 293T cells (normal cell line))
1 | CC=C(NC(=O)CC(O)CCCCCCC)C(=O)N1CCCC1C(=O)NC(CCC(N)=O)C(=O)NC(C)C(=O)NC(C(=O)NC(Cc1ccccc1)C(=O)N1CCCC1C(=O)NC(C(=O)O)C(C)O)C(C)C (stereo not shown) [Compound 2, Burriogladiodin B] ({Decanoyl(3ξ-OH)}-[X1]PQAVFPT-OH; configuration not given here) | > 40 µM | > 20 µM | > 100 µM | > 100 µM | > 20 µM | > 20 µM | > 100 µM | > 20 µM | > 20 µM | > 100 µM | > 20 µM | – | –
2 | CC=C(NC(=O)CCCCCCC)C(=O)NC(=CC)C(=O)NC(Cc1ccc(O)cc1)C(=O)O (stereo not shown) [Compound 10, Haereogladiodin B] | 33.9 ± 0.75 µM | > 20 µM | > 100 µM | – | > 20 µM | > 20 µM | > 100 µM | > 20 µM | > 20 µM | > 100 µM | > 20 µM | > 100 µM | –
3 | CC=C(NC(=O)CC(O)CCCCCCC)C(=O)N1CCCC1C(=O)NC(CCC(N)=O)C(=O)NC(C)C(=O)NC(C(=O)NC(Cc1ccccc1)C(=O)N1CCCC1C(=O)O)C(C)C (stereo not shown) [Compound 1, Burriogladiodin A] ({Decanoyl(3ξ-OH)}-[X1]PQAVFP-OH; configuration not given here) | 29.4 ± 0.85 µM | > 20 µM | > 100 µM | > 100 µM | > 20 µM | > 20 µM | > 100 µM | > 20 µM | > 20 µM | > 100 µM | > 20 µM | – | –
4 | COc1cccc2c1C(=O)c1c(O)c3c(c(O)c1C2=O)C[C@@](O)(C(=O)CO)C[C@@H]3O[C@H]1C[C@H](N)[C@H](O)[C@H](C)O1 [adriamycin, reference compound] | – | 0.68 ± 0.001 µM | – | – | 0.61 ± 0.03 µM | 0.73 ± 0.05 µM | – | 0.61 ± 0.07 µM | 0.57 ± 0.02 µM | – | 0.86 ± 0.07 µM | – | 1.47 ± 0.15 µM
5 | CC=C(NC(=O)CC(O)CCCCCCC)C(=O)N1CCCC1C(=O)NC(CCC(N)=O)C(=O)NC(C)C(=O)NC(C(=O)NC(Cc1ccccc1)C(=O)O)C(C)C (stereo not shown) [Compound 5, Burriogladiodin E] ({Decanoyl(3ξ-OH)}-[X1]PQAVF-OH; configuration not given here) | 24.9 ± 0.96 µM | > 20 µM | > 100 µM | > 100 µM | > 20 µM | > 20 µM | > 100 µM | > 20 µM | > 20 µM | > 100 µM | > 20 µM | – | –
6 | CC=C(NC(=O)CC(O)CCCCCCC)C(=O)N1CCCC1C(=O)NC(CCC(N)=O)C(=O)NC(C)C(=O)NC(C)C(=O)NC(Cc1ccccc1)C(=O)O (stereo not shown) [Compound 8, Burriogladiodin H] ({Decanoyl(3ξ-OH)}-[X1]PQAAF-OH; configuration not given here) | > 40 µM | > 20 µM | > 100 µM | > 100 µM | > 20 µM | > 20 µM | > 100 µM | > 20 µM | > 20 µM | > 100 µM | > 20 µM | – | –
7 | CC=C(NC(=O)CCCCCCC)C(=O)NC(=CC)C(=O)NC(Cc1ccc(O)cc1)C(=O)NC(CC(C)C)C(=O)Nc1ccc(C(=O)NC(C(=O)O)C(C)O)cc1 (stereo not shown) [Compound 9, Haereogladiodin A] | 36.1 ± 0.81 µM | > 20 µM | > 100 µM | – | > 20 µM | > 20 µM | > 100 µM | > 20 µM | > 20 µM | > 100 µM | > 20 µM | > 100 µM | –
